Reference: paper PMC3967794 (Journal of medicinal chemistry, 2014)

Key:
[1] = target: T1, human platelet 12-lipoxygenase (12-LOX) (Homo sapiens, UniProt P18054); assay: Lipoxygenase UV–vis cuvette-based assay, 12-LOX; type: biochemical
T1 sequence (P18054 1-663): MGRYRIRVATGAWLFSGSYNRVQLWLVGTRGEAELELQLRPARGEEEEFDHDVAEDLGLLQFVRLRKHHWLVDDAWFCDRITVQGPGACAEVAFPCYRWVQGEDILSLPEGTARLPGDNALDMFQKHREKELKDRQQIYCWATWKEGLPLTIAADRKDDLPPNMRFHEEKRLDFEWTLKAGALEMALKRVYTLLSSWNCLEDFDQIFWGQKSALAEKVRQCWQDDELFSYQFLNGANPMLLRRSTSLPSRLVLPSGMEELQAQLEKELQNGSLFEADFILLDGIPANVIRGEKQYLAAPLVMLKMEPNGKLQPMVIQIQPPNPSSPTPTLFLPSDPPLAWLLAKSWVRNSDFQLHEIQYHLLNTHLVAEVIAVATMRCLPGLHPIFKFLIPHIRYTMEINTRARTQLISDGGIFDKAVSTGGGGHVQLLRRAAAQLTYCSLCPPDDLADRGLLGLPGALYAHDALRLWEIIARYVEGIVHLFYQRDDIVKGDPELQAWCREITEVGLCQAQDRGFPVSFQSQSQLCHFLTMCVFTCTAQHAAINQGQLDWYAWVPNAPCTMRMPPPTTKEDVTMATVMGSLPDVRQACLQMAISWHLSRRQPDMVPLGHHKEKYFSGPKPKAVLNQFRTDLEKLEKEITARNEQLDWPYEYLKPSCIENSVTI

[2] = in vivo; conditions: male, CD1, mouse, po, 30 mg/kg
[3] = tested on: human platelets
[4] = PBS buffer
[5] = in the presence of NADPH
[6] = pH 7.4, 48 h
[7] = target: T2, 12-LOX (Homo sapiens, UniProt P18054); assay: Steady-state inhibition kinetics; type: biochemical
T2 sequence (P18054 1-663): T1 sequence (P18054 1-663)

SMILES	12-LOX inhibitory activity (in words) [1]	PBS buffer (pH 7.4) solubility [4] [µg/mL]	further results
O=S(=O)(Nc1nccs1)c1ccc(NCc2ccccc2)cc1 [Compound 8]	complete loss of activity	–	–
O=S(=O)(Nc1nccs1)c1ccc(NCc2ccccc2O)cc1 [Compound 9]	complete loss of activity	–	–
Nc1ccccc1CNc1ccc(S(=O)(=O)Nc2nccs2)cc1 [Compound 13]	negated all 12-LOX inhibitory activity	–	–
COc1cccc(CNc2ccc(S(=O)(=O)Nc3nc4ccccc4s3)cc2)c1O [Compound 35, N-(Benzo[d]thiazol-2-yl)-4-((2-hydroxy-3-methoxybenzyl)-amino)benzenesulfonamide]	–	<5	AUC(0-inf) [2]: 38 µM·h; concentration at which calcium mobilization is reduced significantly [3]: 250 nM
COc1cccc(CNc2ccc(S(=O)(=O)Nc3nc4ccccc4o3)cc2)c1O [Compound 36]	–	>60	microsomal stability T1/2 (rat) [5]: >30 (rat) min; PBS buffer (pH 7.4) stability at 48 h [6]: 100%; mode of inhibition [7]: mixed inhibitors
